Source: US12077503B2, “Substituted cyclic amides and their use as herbicides” (FMC CORPORATION, priority 2015, dated 2024)

Columns and labels:
Type in all cases: in vivo
[1] = system: pigweed (Amaranthus retroflexus); test: Test A postemergence; conditions: Amaranthus retroflexus, post-emergence, 240 h; for pest or weed control at 125 g/ha: 125 g ai/ha, postemergence, visual injury on 0 to 100 scale (0 no effect, 100 complete control), approx. 10 d, read-out: Pigweed plant response rating; for pest or weed control at 31 g/ha: Postemergence, 31 g ai/ha, visual injury after approx. 10 d, 0 to 100 scale, 0 no effect, 100 complete control, read-out: Plant response rating, Pigweed
How it was run: (§1)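 Preemergence soil spray on seeded pots or post-emergence spray on 1–2 leaf plants, in loam–sand blend. Greenhouse ~10 d. Visual rating 0–100 against untreated plants.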

[2] = system: giant foxtail (Setaria faberii); test: Test A postemergence; conditions: Setaria faberi, post-emergence, 240 h; for pest or weed control at 125 g/ha: 125 g ai/ha, postemergence, visual injury on 0 to 100 scale (0 no effect, 100 complete control), approx. 10 d, read-out: Foxtail, Giant plant response rating; for pest or weed control at 31 g/ha: Postemergence, 31 g ai/ha, visual injury after approx. 10 d, 0 to 100 scale, 0 no effect, 100 complete control, read-out: Plant response rating, Foxtail, Giant
How it was run: as §1

[3] = system: barnyardgrass (Echinochloa crus-galli); test: Test A postemergence; conditions: Echinochloa crus-galli, post-emergence, 240 h; for pest or weed control at 125 g/ha: 125 g ai/ha, postemergence, visual injury on 0 to 100 scale (0 no effect, 100 complete control), approx. 10 d, read-out: Barnyardgrass plant response rating; for pest or weed control at 31 g/ha: Postemergence, 31 g ai/ha, visual injury after approx. 10 d, 0 to 100 scale, 0 no effect, 100 complete control, read-out: Plant response rating, Barnyardgrass
How it was run: as §1

corn (Zea mays) = test: Test A postemergence; conditions: Zea mays, post-emergence, 240 h; for plant injury at 125 g/ha: 125 g ai/ha, postemergence, visual injury on 0 to 100 scale (0 no effect, 100 complete control), approx. 10 d, read-out: Corn plant response rating; for Corn plant response rating (crop injury, 0 = no effect, 100 = complete kill) at 31 g/ha: Postemergence, 31 g ai/ha, visual injury after approx. 10 d, 0 to 100 scale, 100 complete control
How it was run: as §1

[4] = system: ragweed (common ragweed, Ambrosia elatior); test: Test A postemergence; conditions: Ambrosia artemisiifolia, post-emergence, 240 h; for pest or weed control at 125 g/ha: 125 g ai/ha, postemergence, visual injury on 0 to 100 scale (0 no effect, 100 complete control), approx. 10 d, read-out: Ragweed plant response rating; for pest or weed control at 31 g/ha: Postemergence, 31 g ai/ha, visual injury after approx. 10 d, 0 to 100 scale, 0 no effect, 100 complete control, read-out: Plant response rating, Ragweed
How it was run: as §1

[5] = system: blackgrass (Alopecurus myosuroides); test: Test A postemergence; conditions: Alopecurus myosuroides, post-emergence, 240 h; for pest or weed control at 125 g/ha: 125 g ai/ha, postemergence, visual injury on 0 to 100 scale (0 no effect, 100 complete control), approx. 10 d, read-out: Blackgrass plant response rating; for pest or weed control at 31 g/ha: Postemergence, 31 g ai/ha, visual injury after approx. 10 d, 0 to 100 scale, 0 no effect, 100 complete control, read-out: Plant response rating, Blackgrass
How it was run: as §1

[6] = system: wheat (Triticum aestivum); test: Test A postemergence; conditions: Triticum aestivum, post-emergence, 240 h; for plant injury at 125 g/ha: 125 g ai/ha, postemergence, visual injury on 0 to 100 scale (0 no effect, 100 complete control), approx. 10 d, read-out: Wheat plant response rating; for plant injury at 31 g/ha: Postemergence, 31 g ai/ha, visual injury after approx. 10 d, 0 to 100 scale, 0 no effect, 100 complete control, read-out: Plant response rating, Wheat
How it was run: as §1

[7] = system: ryegrass, Italian (Italian ryegrass, Lolium multiflorum); test: Test A postemergence; conditions: Lolium multiflorum, post-emergence, 240 h; for pest or weed control at 125 g/ha: 125 g ai/ha, postemergence, visual injury on 0 to 100 scale (0 no effect, 100 complete control), approx. 10 d, read-out: Ryegrass, Italian plant response rating; for pest or weed control at 31 g/ha: Postemergence, 31 g ai/ha, visual injury after approx. 10 d, 0 to 100 scale, 0 no effect, 100 complete control, read-out: Plant response rating, Ryegrass, Italian
How it was run: as §1

Kochia (Kochia scoparia) [8] = test: Test A postemergence; conditions: Bassia scoparia, post-emergence, 240 h; for pest or weed control at 125 g/ha: 125 g ai/ha, postemergence, visual injury on 0 to 100 scale (0 no effect, 100 complete control), approx. 10 d, read-out: Kochia plant response rating; for pest or weed control at 31 g/ha: Postemergence, 31 g ai/ha, visual injury after approx. 10 d, 0 to 100 scale, 0 no effect, 100 complete control, read-out: Plant response rating, Kochia
How it was run: as §1

[9] = system: sedge, umbrella (small-flower umbrella sedge, Cyperus difformis); test: Test B flooded paddy test; conditions: Cyperus difformis, 250 g ai/ha, Flood; 0 to 100 scale where 0 is no effect and 100 is complete control; read-out: Sedge, Umbrella plant response rating
How it was run: (§2)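 Rating scale 0–100 (visual, vs untreated controls) after a 13–15 d greenhouse period; application to the flood layer, 3 cm above soil and maintained; plants at 2-leaf stage when treated.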

rice (Oryra sativa) = test: Test B flooded paddy test; conditions: Oryza sativa, 250 g ai/ha, Flood; 0 to 100 scale where 0 is no effect and 100 is complete control; read-out: Rice plant response rating
How it was run: as §2

[10] = system: barnyardgrass (Echinochloa crus-galli); test: Test B flooded paddy test; conditions: Echinochloa crus-galli, 250 g ai/ha, Flood; 0 to 100 scale where 0 is no effect and 100 is complete control; read-out: Barnyardgrass plant response rating
How it was run: as §2

[11] = system: ducksalad (Heteranthera limosa); test: Test B flooded paddy test; conditions: Heteranthera limosa, 250 g ai/ha, Flood; 0 to 100 scale where 0 is no effect and 100 is complete control; read-out: Ducksalad plant response rating
How it was run: as §2

[12] = system: pigweed (Amaranthus retroflexus); test: Test A preemergence; conditions: Amaranthus retroflexus, pre-emergence, 240 h, 0 to 100 scale where 0 is no effect and 100 is complete control, read-out: Pigweed plant response rating; for pest or weed control at 31 g/ha: 31 g ai/ha, Preemergence; for pest or weed control at 125 g/ha: 125 g ai/ha, preemergence, approx. 10 d
[13] = system: giant foxtail (Setaria faberii); test: Test A preemergence; conditions: Setaria faberi, pre-emergence, 240 h, 0 to 100 scale where 0 is no effect and 100 is complete control, read-out: Foxtail, Giant plant response rating; for pest or weed control at 31 g/ha: 31 g ai/ha, Preemergence; for pest or weed control at 125 g/ha: 125 g ai/ha, preemergence, approx. 10 d
How it was run: as §1

[14] = system: barnyardgrass (Echinochloa crus-galli); test: Test A preemergence; conditions: Echinochloa crus-galli, pre-emergence, 240 h, 0 to 100 scale where 0 is no effect and 100 is complete control, read-out: Barnyardgrass plant response rating; for pest or weed control at 31 g/ha: 31 g ai/ha, Preemergence; for pest or weed control at 125 g/ha: 125 g ai/ha, preemergence, approx. 10 d
How it was run: as §1

[15] = system: ragweed (common ragweed, Ambrosia elatior); test: Test A preemergence; conditions: Ambrosia artemisiifolia, pre-emergence, 240 h, 0 to 100 scale where 0 is no effect and 100 is complete control, read-out: Ragweed plant response rating; for pest or weed control at 31 g/ha: 31 g ai/ha, Preemergence; for pest or weed control at 125 g/ha: 125 g ai/ha, preemergence, approx. 10 d
How it was run: as §1

[16] = system: ryegrass, Italian (Italian ryegrass, Lolium multiflorum); test: Test A preemergence; conditions: Lolium multiflorum, pre-emergence, 240 h, 0 to 100 scale where 0 is no effect and 100 is complete control, read-out: Ryegrass, Italian plant response rating; for pest or weed control at 31 g/ha: 31 g ai/ha, Preemergence; for pest or weed control at 125 g/ha: 125 g ai/ha, preemergence, approx. 10 d
How it was run: as §1

Kochia (Kochia scoparia) [17] = test: Test A preemergence; conditions: Bassia scoparia, pre-emergence, 240 h, 0 to 100 scale where 0 is no effect and 100 is complete control, read-out: Kochia plant response rating; for pest or weed control at 31 g/ha: 31 g ai/ha, Preemergence; for pest or weed control at 125 g/ha: 125 g ai/ha, preemergence, approx. 10 d
How it was run: as §1

Compound	pest or weed control at 125 g/ha [1] [%]	pest or weed control at 31 g/ha [1] [%]	pest or weed control at 125 g/ha [2] [%]	pest or weed control at 31 g/ha [2] [%]	pest or weed control at 125 g/ha [3] [%]	pest or weed control at 31 g/ha [3] [%]	plant injury at 125 g/ha (corn (Zea mays)) [%]	Corn plant response rating (crop injury, 0 = no effect, 100 = complete kill) at 31 g/ha (corn (Zea mays)) [%]	pest or weed control at 125 g/ha [4] [%]	pest or weed control at 31 g/ha [4] [%]	pest or weed control at 125 g/ha [5] [%]	pest or weed control at 31 g/ha [5] [%]	plant injury at 125 g/ha [6] [%]	plant injury at 31 g/ha [6] [%]	pest or weed control at 125 g/ha [7] [%]	pest or weed control at 31 g/ha [7] [%]	pest or weed control at 125 g/ha (Kochia (Kochia scoparia) [8]) [%]	pest or weed control at 31 g/ha (Kochia (Kochia scoparia) [8]) [%]	pest or weed control at 250 g/ha [9] [%]	pest or weed control at 250 g/ha (rice (Oryra sativa)) [%]	other results
CN1C[C@H](c2cc(C(F)F)cs2)[C@@H](C(=O)Nc2cccc(F)c2C#N)C1=O [Compound 1092]	20	0	90	30	90	50	0	0	50	0	20	0	0	0	0	0	20	0	0	0	pest or weed control at 250 g/ha [10]: 60%; pest or weed control at 250 g/ha [11]: 85%; pest or weed control at 31 g/ha [12]: 0%; pest or weed control at 125 g/ha [12]: 0%; pest or weed control at 31 g/ha [13]: 90%; pest or weed control at 125 g/ha [13]: 100%; pest or weed control at 31 g/ha [14]: 40%; pest or weed control at 125 g/ha [14]: 90%; pest or weed control at 31 g/ha [15]: 0%; pest or weed control at 125 g/ha [15]: 40%; pest or weed control at 31 g/ha [16]: 0%; pest or weed control at 125 g/ha [16]: 0%; pest or weed control at 31 g/ha (Kochia (Kochia scoparia) [17]): 70%; pest or weed control at 125 g/ha (Kochia (Kochia scoparia) [17]): 0%
CN1C[C@H](c2cc(C(F)F)cs2)[C@@H](C(=O)Nc2cccc(C#N)c2F)C1=O [Compound 1093]	20	0	90	30	80	40	0	0	30	0	0	0	0	0	0	0	20	0	0	0	pest or weed control at 250 g/ha [10]: 60%; pest or weed control at 250 g/ha [11]: 80%; pest or weed control at 31 g/ha [12]: 0%; pest or weed control at 125 g/ha [12]: 80%; pest or weed control at 31 g/ha [13]: 100%; pest or weed control at 125 g/ha [13]: 100%; pest or weed control at 31 g/ha [14]: 40%; pest or weed control at 125 g/ha [14]: 90%; pest or weed control at 31 g/ha [15]: 0%; pest or weed control at 125 g/ha [15]: 20%; pest or weed control at 31 g/ha [16]: 0%; pest or weed control at 125 g/ha [16]: 0%; pest or weed control at 31 g/ha (Kochia (Kochia scoparia) [17]): 0%; pest or weed control at 125 g/ha (Kochia (Kochia scoparia) [17]): 50%
